# Test results reported in PubChem BioAssay (NCI).
#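 Growth conditions: 96-well plates. Treatment: test compound, 48 hours, 5 concentrations. Analysis: linear interpolation between bracketing concentrations; unreached endpoints set to highest concentration. GI50 is the concentration that inhibits growth by half. TGI marks complete inhibition of growth.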
# Test system: DU-145 prostate
# Experiment: NCI anticancer screen, dose series, 48 h
Compound,GI50 [µM],TGI [µM]
CN(C)C(=O)[C@H](O)[C@H](Cc1ccccc1)NC(=O)c1cc2cc(Cl)ccc2[nH]1,33.3,> 100
CC(C)(C[C@H]1CN(S(=O)(=O)c2cccc(C(F)(F)F)c2)c2cc(-c3cc(F)cc(OC(F)F)c3)ccc2O1)C(=O)O,12.4,25.3
Cc1ccc(-c2nc3ccc(Cl)cc3c(=O)n2N2C(=O)CSC2c2ccccc2Cl)cc1 (stereo unspecified),58.4,> 100
C#Cc1c(I)n(C2OC(CO[Si](C)(C)C(C)(C)C)C3OC(C)(C)OC32)c(=O)[nH]c1=O (stereo unspecified),4.57,19.4
CCSc1nc(SCC)c2cn[nH]c2n1,30.6,> 100
ClCC[N+]12CC[N+](CCCl)(CC1)C2,,> 100
COc1cc(C(=O)c2cc(C)c3[nH]c4ccc(C)cc4c3c2C)cc(OC)c1OC,< 0.01,
C=C1C(=O)OC2/C=C(\COC(C)=O)CCC(OC(C)=O)C3=CC(OC3=O)C12 (stereo unspecified),,> 100
Cc1ccc2[nH]c(O)c(N=Nc3ccc(S(N)(=O)=O)cc3)c2c1,9.46,> 25
C/C(N=NC(=S)N(C)C)=C1\C=CC=CN1O,,> 100
C=C1CCC(CC[C@@H]2CC[C@]3(OC2)O[C@@]2(O)CC[C@]3(C)OC2(C)C)C(C)(C)[C@H]1C/C=C1/C(=O)OC[C@@H]1O (stereo partly specified),,14.8
C[C@]12CC[C@@H]3c4cc(OCC(F)(F)F)c(O)cc4/C(=N/O)C[C@H]3[C@@H]1CC[C@@H]2O,0.0673,> 54
Cn1c(=O)c(Cc2ccccc2F)cc2cnc(NC3CCOCC3)nc21,> 25,> 25
COc1cc(/C=C/c2ccc(OC)c(OC)c2)cc(OC)c1,,> 100
CC1(C)[C@@H](OC(N)=O)[C@H]2O[C@H]2[C@]2(C=O)[C@H]3CC[C@]4(C)[C@@H](c5ccc(=O)oc5)[C@@H](Cl)C[C@]4(O)C3=CC[C@@H]12,0.00437,0.00798
CCCCON(OC(=O)c1ccc2ccc3cccc4ccc1c2c34)C(C)=O,31.1,> 100
Cc1[nH]c2ccccc2c(=O)c1CC=C(Cl)Cl,88.2,> 100
Clc1ccc(C=Nc2ccc3c(c2)Cc2ccccc2-3)c(Cl)c1,,> 100
COc1ccc(/C=C/c2cc(OC)cc(=O)o2)cc1,,> 100
O=C(/C=C\c1ccc(NCc2ccc(C(=O)O)cc2)cc1)CCl,17.3,31.9
O=C1CSC(c2ccc(Cl)cc2Cl)N1c1ccc(F)cc1 (stereo unspecified),16.1,29.6
COc1cccc(C#Cc2ccccc2C#CCCCCO)c1,4.17,18.9
COc1cc2[nH]c(C(=O)c3cc(OC)c(OC)c(OC)c3)c(N)c2cc1C#CC1CC1,3.33,> 100
COc1ccc(/C=C/C(=O)C(CC2CCC2)C(=O)/C=C/c2ccc(OC)c(OC)c2)cc1OC,1.71,3.56
CCn1c(-c2ccc(OC(C)=O)cc2)c(C)c2cc(OC(C)=O)ccc21,,43.3
O=c1cccc(C#CC#CC2=CCCCC2)o1,1.96,4.4
O=C1Nc2ccc(F)cc2/C1=C/c1ccc[nH]1,> 25,> 25

# Test system: OVCAR-8 ovarian
# Experiment: NCI anticancer screen, dose series, 48 h
Compound,GI50 [µM],TGI [µM]
Nc1ccc(-c2nc3ccc(Cc4ccc5nc(-c6ccc(N)cc6)[nH]c5c4)cc3[nH]2)cc1,2.48,6.58
O=S(=O)(Nc1cc(Sc2cccc3cccnc23)c(O)c2ccccc12)c1ccccc1,0.631,> 100
CN(C)C(=O)[C@H](O)[C@H](Cc1ccccc1)NC(=O)c1cc2cc(Cl)ccc2[nH]1,28.8,> 100
CC(C)(C[C@H]1CN(S(=O)(=O)c2cccc(C(F)(F)F)c2)c2cc(-c3cc(F)cc(OC(F)F)c3)ccc2O1)C(=O)O,12.1,35.5
Cc1ccc(-c2nc3ccc(Cl)cc3c(=O)n2N2C(=O)CSC2c2ccccc2Cl)cc1 (stereo unspecified),4.58,> 100
C#Cc1c(I)n(C2OC(CO[Si](C)(C)C(C)(C)C)C3OC(C)(C)OC32)c(=O)[nH]c1=O (stereo unspecified),12.1,27.8
CCSc1nc(SCC)c2cn[nH]c2n1,62.7,> 100
ClCC[N+]12CC[N+](CCCl)(CC1)C2,,> 100
COc1cc(C(=O)c2cc(C)c3[nH]c4ccc(C)cc4c3c2C)cc(OC)c1OC,< 0.01,> 100
C=C1C(=O)OC2/C=C(\COC(C)=O)CCC(OC(C)=O)C3=CC(OC3=O)C12 (stereo unspecified),,9.6
Cc1ccc2[nH]c(O)c(N=Nc3ccc(S(N)(=O)=O)cc3)c2c1,> 16.9,> 25
C/C(N=NC(=S)N(C)C)=C1\C=CC=CN1O,,> 94.1
C=C1CCC(CC[C@@H]2CC[C@]3(OC2)O[C@@]2(O)CC[C@]3(C)OC2(C)C)C(C)(C)[C@H]1C/C=C1/C(=O)OC[C@@H]1O (stereo partly specified),,5.04
C[C@]12CC[C@@H]3c4cc(OCC(F)(F)F)c(O)cc4/C(=N/O)C[C@H]3[C@@H]1CC[C@@H]2O,0.0808,15.5
Cn1c(=O)c(Cc2ccccc2F)cc2cnc(NC3CCOCC3)nc21,> 25,> 25
COc1cc(/C=C/c2ccc(OC)c(OC)c2)cc(OC)c1,,> 100
CC1(C)[C@@H](OC(N)=O)[C@H]2O[C@H]2[C@]2(C=O)[C@H]3CC[C@]4(C)[C@@H](c5ccc(=O)oc5)[C@@H](Cl)C[C@]4(O)C3=CC[C@@H]12,0.00603,0.015
CCCCON(OC(=O)c1ccc2ccc3cccc4ccc1c2c34)C(C)=O,28.9,> 100
Cc1[nH]c2ccccc2c(=O)c1CC=C(Cl)Cl,66.6,> 100
Clc1ccc(C=Nc2ccc3c(c2)Cc2ccccc2-3)c(Cl)c1,,> 100
COc1ccc(/C=C/c2cc(OC)cc(=O)o2)cc1,,> 100
O=C(/C=C\c1ccc(NCc2ccc(C(=O)O)cc2)cc1)CCl,6.98,19.9
O=C1CSC(c2ccc(Cl)cc2Cl)N1c1ccc(F)cc1 (stereo unspecified),19,35.7
COc1cccc(C#Cc2ccccc2C#CCCCCO)c1,12.5,27.9
COc1cc2[nH]c(C(=O)c3cc(OC)c(OC)c(OC)c3)c(N)c2cc1C#CC1CC1,5.3,> 100
CCn1c(-c2ccc(OC(C)=O)cc2)c(C)c2cc(OC(C)=O)ccc21,,> 100
O=c1cccc(C#CC#CC2=CCCCC2)o1,2.21,6.32
O=C1Nc2ccc(F)cc2/C1=C/c1ccc[nH]1,> 25,> 25

# Test system: MDA-MB-435
# Experiment: NCI anticancer screen, dose series, 48 h
Compound,GI50 [µM],TGI [µM]
Nc1ccc(-c2nc3ccc(Cc4ccc5nc(-c6ccc(N)cc6)[nH]c5c4)cc3[nH]2)cc1,1.45,3.67
O=S(=O)(Nc1cc(Sc2cccc3cccnc23)c(O)c2ccccc12)c1ccccc1,2.01,12.6
CN(C)C(=O)[C@H](O)[C@H](Cc1ccccc1)NC(=O)c1cc2cc(Cl)ccc2[nH]1,22.9,70.1
CC(C)(C[C@H]1CN(S(=O)(=O)c2cccc(C(F)(F)F)c2)c2cc(-c3cc(F)cc(OC(F)F)c3)ccc2O1)C(=O)O,2.44,7.58
Cc1ccc(-c2nc3ccc(Cl)cc3c(=O)n2N2C(=O)CSC2c2ccccc2Cl)cc1 (stereo unspecified),> 100,> 100
C#Cc1c(I)n(C2OC(CO[Si](C)(C)C(C)(C)C)C3OC(C)(C)OC32)c(=O)[nH]c1=O (stereo unspecified),15,31
CCSc1nc(SCC)c2cn[nH]c2n1,49.6,> 100
ClCC[N+]12CC[N+](CCCl)(CC1)C2,,> 100
COc1cc(C(=O)c2cc(C)c3[nH]c4ccc(C)cc4c3c2C)cc(OC)c1OC,< 0.01,0.136
C=C1C(=O)OC2/C=C(\COC(C)=O)CCC(OC(C)=O)C3=CC(OC3=O)C12 (stereo unspecified),,32.9
Cc1ccc2[nH]c(O)c(N=Nc3ccc(S(N)(=O)=O)cc3)c2c1,15.5,> 25
C/C(N=NC(=S)N(C)C)=C1\C=CC=CN1O,,> 100
C=C1CCC(CC[C@@H]2CC[C@]3(OC2)O[C@@]2(O)CC[C@]3(C)OC2(C)C)C(C)(C)[C@H]1C/C=C1/C(=O)OC[C@@H]1O (stereo partly specified),,5.82
C[C@]12CC[C@@H]3c4cc(OCC(F)(F)F)c(O)cc4/C(=N/O)C[C@H]3[C@@H]1CC[C@@H]2O,,0.0465
